Read-outs that look alike come from different tables or passages of the source.
Key:
[1] = biological target: SHP-2 enzyme (Met1-Leu525) (Homo sapiens (Human), UniProt Q06124); experiment: SHP2 inhibition enzymatic assay; format: biochemical; conditions: 0.5 nM SHP-2 activated by 500 nM IRS1 peptide, 75 μM DiFMUP substrate; read-out: SHP2wt-IC50
Procedure, shortened: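 SHP-2 (Met1-Leu525), 0.5 nM, activated with 500 nM IRS1 bis-phosphopeptide, preincubated 30 min with compounds in HEPES pH 7.2 buffer with 5 mM DTT. 75 μM DiFMUP added for 30 min at room temperature, stopped with bpV; fluorescence read. IC50 from four-parameter logistic fit of % inhibition.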

[2] = system: ERK phosphorylation in KYSE-520 cells; experiment: Phospho-ERK cellular assay; format: cell-based; conditions: KYSE-520 cells, 2 h at 37° C., phospho-ERK1/2 (Thr202/Tyr204) TR-FRET, read-out: PERK IC50
Procedure, shortened: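 TR-FRET read-out of ERK1/2 Thr202/Tyr204 phosphorylation was taken after overnight antibody incubation at room temperature. Before that, KYSE-520 cells were treated 2 h at 37 °C with compound dilutions and lysed 30 min. Percent inhibition relative to vehicle and cell-free wells was fitted four-parametrically to give IC50.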

Sequence of SHP-2 enzyme (Met1-Leu525) (Q06124 1-525): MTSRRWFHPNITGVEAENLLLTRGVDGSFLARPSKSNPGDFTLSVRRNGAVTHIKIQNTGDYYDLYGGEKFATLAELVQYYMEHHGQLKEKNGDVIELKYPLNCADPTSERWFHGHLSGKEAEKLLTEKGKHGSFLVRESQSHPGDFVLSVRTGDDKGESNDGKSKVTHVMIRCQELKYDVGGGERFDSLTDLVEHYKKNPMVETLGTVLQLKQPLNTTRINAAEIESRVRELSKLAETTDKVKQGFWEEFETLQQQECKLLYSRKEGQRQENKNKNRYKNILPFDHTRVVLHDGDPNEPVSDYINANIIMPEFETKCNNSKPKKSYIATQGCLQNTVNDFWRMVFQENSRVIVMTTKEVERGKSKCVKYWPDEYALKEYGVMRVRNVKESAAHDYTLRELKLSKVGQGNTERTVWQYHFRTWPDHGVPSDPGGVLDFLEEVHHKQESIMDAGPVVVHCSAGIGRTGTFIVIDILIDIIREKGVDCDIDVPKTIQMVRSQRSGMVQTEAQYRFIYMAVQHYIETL

Row | SMILES | IC50 [1] | IC50 ([2]; Homo sapiens, KYSE-520, 2 h) | IC50 [2]
1 | NCC1(c2ccccn2)C2CCN(c3nc4nc(Sc5cccnc5C(F)(F)F)cnc4[nH]3)CC21 (stereo not drawn) [Example 65, (7-(pyridin-2-yl)-3-(5-((2-(trifluoromethyl)pyridin-3-yl)thio)-1H-imidazo[4,5-b]pyrazin-2-yl)-3-azabicyclo[4.1.0]heptan-7-yl)methanamine] | < 500 nM | 1000 to 5000 nM | 
2 | NC[C@]1(c2ccccc2F)[C@@H]2CCN(c3cnc4c(-c5ccncc5Cl)n[nH]c4n3)C[C@@H]21 [Example 176, ((1S,6R,7R)-3-(3-(3-chloropyridin-4-yl)-1H-pyrazolo[3,4-b]pyrazin-6-yl)-7-(2-fluorophenyl)-3-azabicyclo[4.1.0]heptan-7-yl)methanamine] | < 500 nM | < 1000 nM | 
3 | NC[C@]1(c2ccccc2F)[C@@H]2CCN(c3cnc4c(-c5ccc6c(=O)n(CCO)ccc6c5F)n[nH]c4n3)C[C@@H]21 [Example 351, 6-(6-((1S,6R,7R)-7-(aminomethyl)-7-(2-fluorophenyl)-3-azabicyclo[4.1.0]heptan-3-yl)-1H-pyrazolo[3,4-b]pyrazin-3-yl)-5-fluoro-2-(2-hydroxyethyl)isoquinolin-1(2H)-one] | < 500 nM | < 1000 nM | 
4 | Cn1cc2c(Cl)c(-c3n[nH]c4nc(N5CCC6C(C5)C6(CN)c5cc(C6CC6)on5)cnc34)ccc2n1 (stereo not drawn) [Example 48, (3-(3-(4-chloro-2-methyl-2H-indazol-5-yl)-1H-pyrazolo[3,4-b]pyrazin-6-yl)-7-(5-cyclopropylisoxazol-3-yl)-3-azabicyclo[4.1.0]heptan-7-yl)methanamine] | < 500 nM | < 1000 nM | 
5 | CN(C)C(=O)Cn1cc2c(Cl)c(-c3n[nH]c4nc(N5CC[C@@H]6[C@H](C5)[C@@]6(CN)c5ccccc5F)cnc34)ccc2n1 [Example 428] | < 500 nM |  | < 1000 nM
6 | Cc1cc2ncccc2cc1-c1n[nH]c2nc(N3CC[C@@H]4[C@H](C3)[C@@]4(CN)c3ccccc3F)cnc12 [Example 171, ((1S,6R,7R)-7-(2-fluorophenyl)-3-(3-(7-methylquinolin-6-yl)-1H-pyrazolo[3,4-b]pyrazin-6-yl)-3-azabicyclo[4.1.0]heptan-7-yl)methanamine] | < 500 nM | < 1000 nM | 
7 | Cn1c(=O)n(C)c2c(Cl)c(-c3n[nH]c4nc(N5CC[C@@H]6[C@H](C5)[C@@]6(CN)c5ccccc5F)cnc34)ccc21 [Example 317, 5-(6-((1S,6R,7R)-7-(aminomethyl)-7-(2-fluorophenyl)-3-azabicyclo[4.1.0]heptan-3-yl)-1H-pyrazolo[3,4-b]pyrazin-3-yl)-4-chloro-1,3-dimethyl-1,3-dihydro-2H-benzo[d]imidazol-2-one] | < 500 nM | < 1000 nM | 
8 | Cn1c(-c2n[nH]c3nc(N4CC[C@@H]5[C@H](C4)[C@@]5(CN)c4ccccc4F)cnc23)cccc1=O [Example 198, 6-(6-((1S,6R,7R)-7-(aminomethyl)-7-(2-fluorophenyl)-3-azabicyclo[4.1.0]heptan-3-yl)-1H-pyrazolo[3,4-b]pyrazin-3-yl)-1-methylpyridin-2(1H)-one] | < 500 nM | < 1000 nM | 
9 | Cc1csc([C@@]2(CN)[C@@H]3CN(c4cnc5c(-c6ccc7ncn(C)c7c6Cl)n[nH]c5n4)C[C@@H]32)n1 [Example 483] | < 500 nM |  | < 1000 nM
10 | Cn1cc2cc(-c3ccc4nc(N5CC[C@H]6[C@@H](C5)[C@]6(CN)c5ccccc5F)ccc4n3)ccc2n1 [Example 394, ((1R,6S,7S)-7-(2-fluorophenyl)-3-(6-(2-methyl-2H-indazol-5-yl)-1,5-naphthyridin-2-yl)-3-azabicyclo[4.1.0]heptan-7-yl)methanamine] | > 3000 nM | < 1000 nM | 
11 | NC[C@]1(c2ccccc2F)[C@@H]2CCN(c3cnc4c(-c5cc(N)ncc5Cl)n[nH]c4n3)C[C@@H]21 [Example 196, 4-(6-((1S,6R,7R)-7-(aminomethyl)-7-(2-fluorophenyl)-3-azabicyclo[4.1.0]heptan-3-yl)-1H-pyrazolo[3,4-b]pyrazin-3-yl)-5-chloropyridin-2-amine] | < 500 nM | < 1000 nM | 
12 | COc1nccc(-c2n[nH]c3nc(N4CC[C@@H]5[C@H](C4)[C@@]5(CN)c4ccccc4F)cnc23)c1Cl [Example 500] | < 500 nM |  | < 1000 nM
13 | Cn1cnc2ccc(-c3ccc4nc(N5CC[C@@H]6[C@H](C5)[C@@]6(CN)c5cc(F)ccc5F)cnc4n3)cc21 [Example 527, ((1S,6R,7R)-7-(2,5-difluorophenyl)-3-(6-(1-methyl-1H-benzo[d]imidazol-6-yl)pyrido[2,3-b]pyrazin-2-yl)-3-azabicyclo[4.1.0]heptan-7-yl)methanamine] | < 500 nM | 1000 to 5000 nM | 
14 | NC[C@]1(c2ccccc2F)[C@@H]2CCN(c3cnc4c(-c5ccnc(-c6cncnc6)c5Cl)n[nH]c4n3)C[C@@H]21 [Example 284, ((1S,6R,7R)-3-(3-(3-chloro-2-(pyrimidin-5-yl)pyridin-4-yl)-1H-pyrazolo[3,4-b]pyrazin-6-yl)-7-(2-fluorophenyl)-3-azabicyclo[4.1.0]heptan-7-yl)methanamine] | < 500 nM | < 1000 nM | 
15 | Cn1cc2c(Cl)c(-c3n[nH]c4nc(N5CC[C@@H]6[C@H](C5)[C@@]6(CN)c5cc(F)cc(F)c5)n(C)c(=O)c34)ccc2n1 [Example 344, 6-((1S,6R,7R)-7-(aminomethyl)-7-(3,5-difluorophenyl)-3-azabicyclo[4.1.0]heptan-3-yl)-3-(4-chloro-2-methyl-2H-indazol-5-yl)-5-methyl-1,5-dihydro-4H-pyrazolo[3,4-d]pyrimidin-4-one] | < 500 nM | < 1000 nM | 
16 | Cn1cc2c(Cl)c(Sc3ccc4nc(N5CC[C@@H]6[C@H](C5)[C@@]6(CN)c5ccccc5F)cnc4n3)ccc2n1 [Example 400, ((1S,6R,7R)-3-(6-((4-chloro-2-methyl-2H-indazol-5-yl)thio)pyrido[2,3-b]pyrazin-2-yl)-7-(2-fluorophenyl)-3-azabicyclo[4.1.0]heptan-7-yl)methanamine] | < 500 nM | < 1000 nM | 
17 | Cc1nnc([C@@]2(CN)[C@@H]3CN(c4cnc5c(-c6ccc7nn(C)cc7c6Cl)n[nH]c5n4)C[C@@H]32)s1 [Example 501, ((1R,5S,6r)-3-(3-(4-chloro-2-methyl-2H-indazol-5-yl)-1H-pyrazolo[3,4-b]pyrazin-6-yl)-6-(5-methyl-1,3,4-thiadiazol-2-yl)-3-azabicyclo[3.1.0]hexan-6-yl)methanamine] | < 500 nM | < 1000 nM | 
18 | NCC1(c2ccccn2)C2CCN(c3cnc4c(-c5cccc(Cl)c5Cl)n[nH]c4n3)CC21 (stereo not drawn) [Example 82, (3-(3-(2,3-dichlorophenyl)-1H-pyrazolo[3,4-b]pyrazin-6-yl)-7-(pyridin-2-yl)-3-azabicyclo [4.1.0]heptan-7-yl)methanamine] | < 500 nM | < 1000 nM | 
19 | Cc1cc([C@@]2(CN)[C@@H]3CCN(c4cnc5c(-c6ccc(C(C)O)c7ncccc67)n[nH]c5n4)C[C@@H]32)no1 (stereo partly drawn) [Example 134, 1-(5-(6-((1S,6R,7S)-7-(aminomethyl)-7-(5-methylisoxazol-3-yl)-3-azabicyclo[4.1.0]heptan-3-yl)-1H-pyrazolo[3,4-b]pyrazin-3-yl)quinolin-8-yl)ethan-1-ol] | < 500 nM | < 1000 nM | 
20 | NC[C@]1(c2ccccc2F)[C@@H]2CCN(c3cnc4c(-c5ccc6c(c5)CNC6=O)n[nH]c4n3)C[C@@H]21 [Example 218, 5-(6-((1S,6R,7R)-7-(aminomethyl)-7-(2-fluorophenyl)-3-azabicyclo[4.1.0]heptan-3-yl)-1H-pyrazolo[3,4-b]pyrazin-3-yl)isoindolin-1-one] | < 500 nM | < 1000 nM | 
21 | Cc1cc([C@@]2(CN)[C@@H]3CCN(c4cnc5c(-c6ccc(C(F)F)c7ncccc67)n[nH]c5n4)C[C@@H]32)no1 [Example 133, ((1S,6R,7S)-3-(3-(8-(difluoromethyl)quinolin-5-yl)-1H-pyrazolo[3,4-b]pyrazin-6-yl)-7-(5-methylisoxazol-3-yl)-3-azabicyclo[4.1.0]heptan-7-yl)methanamine] | < 500 nM | < 1000 nM | 
22 | Cc1csc([C@@]2(CN)[C@@H]3CN(c4cnc5nc(Sc6ccnc(-n7cccn7)c6Cl)ccc5n4)C[C@@H]32)n1 [Example 515, ((1R,5S,6r)-3-(6-((3-chloro-2-(1H-pyrazol-1-yl)pyridin-4-yl)thio)pyrido[2,3-b]pyrazin-2-yl)-6-(4-methylthiazol-2-yl)-3-azabicyclo[3.1.0]hexan-6-yl)methanamine] | < 500 nM | < 1000 nM | 
23 | Cc1nc(-c2ccc(-c3n[nH]c4nc(N5CC[C@@H]6[C@H](C5)[C@@]6(CN)c5ccccc5F)cnc34)c(Cl)c2)no1 [Example 377, ((1S,6R,7R)-3-(3-(2-chloro-4-(5-methyl-1,2,4-oxadiazol-3-yl)phenyl)-1H-pyrazolo[3,4-b]pyrazin-6-yl)-7-(2-fluorophenyl)-3-azabicyclo[4.1.0]heptan-7-yl)methanamine] | < 500 nM | < 1000 nM | 
24 | NC[C@]1(c2ccccc2F)[C@@H]2CCN(c3cnc4c(-c5ccc(-n6cccc6)cc5Cl)n[nH]c4n3)C[C@@H]21 [Example 454, ((1S,6R,7R)-3-(3-(2-chloro-4-(1H-pyrrol-1-yl)phenyl)-1H-pyrazolo[3,4-b]pyrazin-6-yl)-7-(2-fluorophenyl)-3-azabicyclo[4.1.0]heptan-7-yl)methanamine] | < 500 nM | < 1000 nM | 

— patent US20240109900A1, “AZABICYCLIC SHP2 INHIBITORS” (IRBM S.P.A., priority 2021, published 2024)
